Our source for the IC50 values is patent US12173003B1, “Pyrrolo[3,2-C][2,6]naphthyridine-2-carboxylic acid compounds as CK2 inhibitors” (KING FAISAL UNIVERSITY, priority 2023, dated 2024).

One experiment has as its target T1, recombinant human CK2 (Homo sapiens, UniProt P68400).
T1 construct: purchased Millipore
Nature of the experiment: CK2 Kinase Assay (33P-ATP, filter plate). As to conditions: final ATP concentration 15 μM, 10 min at 30° C.; read-out: protein kinase CK2 IC50. The format is biochemical. The method, then: CK2 Kinase Assay was conducted using the protocol as described in Pierre F. et al; J. Med. Chem. 2011, 54, 635-654. The tested compounds in aqueous solution were added at a volume of 10 μL to a reaction mixture comprising 10 μL of assay dilution buffer (ADB; 20 mM MOPS, pH 7.2, 25 mM β-glycerol phosphate, 5 mM EGTA, 1 mM sodium orthovanadate, and 1 mM dithiothreitol), 10 μL of substrate peptide (RRRDDDSDDD, dissolved in ADB at a concentration of 1 mM), 10 μL of recombinant human CK2 (RRββ-holoenzyme, 25 ng dissolved in ADB; Millipore). Reactions were initiated by the addition of 10 μL of ATP solution (90% 75 mMMgCl2, 75 μM ATP (final ATP concentration:15 μM) dissolved in ADB; 10% [γ-33P] ATP (stock 1 mCi/100 μL; 3000 Ci/mmol (Perkin-Elmer) and maintained for 10 min at 30° C. The reactions were quenched with 100 μL of 0.75% phosphoric acid and then transferred to and filtered through a phosphor cellulose filter plate (Millipore). After washing each well five times with 0.75% phosphoric acid, the plate was dried under vacuum for 5 min and, following the addition of 15 μL of scintillation fluid to each well, the residual radioactivity was measured using a Wallac luminescence counter. The IC50 values were derived from eight concentrations of test inhibitors.

For another experiment, the system named is HL60 (leukemia). Nature of the experiment: In vitro cytotoxic activity MTT assay, HL60. In kind it is cell-based. As to conditions: Homo sapiens, HL-60; HL60 cells, exposed for 96 hours; read-out: IC50, 50% inhibition of cell proliferation, HL60 (leukemia). The method, then:
(§1) Compounds 1-16 were screened for their in vitro cytotoxic activity utilizing a 3-(4,5-dimethyl-thiazol-2-yl)-2,5-diphenyltetrazolium bromide (MTT) assay against selected cancer human cell lines consisting of PC3 (prostate), HCT116 (colon), A375 (melanoma), H1299 (lung), MIAPaCa-2 (pancreas), HL60 (leukemia), MCF7 (breast), MDA-MB-231 (breast) (T. Mosmann, J. Immunol. Meth., 1983, 65, 55-63). The cells were cultured at 37° C. in RMPI1640 medium supplemented with 10% fetal bovine serum, 50 IU/mL penicillin, and 50 μg/mL streptomycin in a 5% CO2 incubator. All cells were sub-cultured 3 times/week by trypsinisation. Viable cells were seeded and allowed to adhere for 12 h before a test drug was added in 96-well plates at an initial density of 1.0×10^5 cells/mL. Tumour cell lines were separately exposed to various concentrations of the tested compounds followed by incubation at a temperature of 37° C. during 96 h inside a medium of fresh RMPI 1640. Cells were subsequently incubated at 37° C. using MTT at 0.5 mg/mL during 4 h. After removal of supernatant, formazan crystals were dissolved in isopropanol and the optical density was measured at 570 nm. CX-4945 was used as a positive control.

In a further experiment the test system is HCT116 (colon). Kind of experiment: In vitro cytotoxic activity MTT assay, HCT116. As to conditions: Homo sapiens, HCT-116; HCT116 cells, exposed for 96 hours; read-out: IC50, 50% inhibition of cell proliferation, HCT116 (colon). In kind it is cell-based. The method, then: as §1
The test system of another experiment is MIAPaCa-2 (pancreas). Kind of experiment: In vitro cytotoxic activity MTT assay, MIAPaCa-2. In kind it is cell-based. As to conditions: Homo sapiens, MIA PaCa-2; MIAPaCa-2 cells, exposed for 96 hours; read-out: IC50, 50% inhibition of cell proliferation, MIAPaCa-2 (pancreas). How it is done: as §1
A further experiment has as its system MDA-MB-231 (breast). Nature of the experiment: In vitro cytotoxic activity MTT assay, MDA-MB-231. In kind it is cell-based. Conditions: Homo sapiens; MDA-MB-231 cells, exposed for 96 hours; read-out: IC50, 50% inhibition of cell proliferation, MDA-MB-231 (breast). How it is done: as §1
Another experiment has as its system A375 (melanoma). Kind of experiment: In vitro cytotoxic activity MTT assay, A375. The format is cell-based. Conditions: Homo sapiens, A-375; A375 cells, exposed for 96 hours; read-out: IC50, 50% inhibition of cell proliferation, A375 (melanoma). How it is done:
as §1

Another experiment concerns MCF7 (breast). Kind of experiment: In vitro cytotoxic activity MTT assay, MCF7. In kind it is cell-based. As to conditions: Homo sapiens; MCF7 cells, exposed for 96 hours; read-out: IC50, 50% inhibition of cell proliferation, MCF7 (breast). The method, then:
as §1

For a further experiment, the system named is PC3 (prostate). Nature of the experiment: In vitro cytotoxic activity MTT assay, PC3. The format is cell-based. As to conditions: Homo sapiens, PC-3; PC3 cells, exposed for 96 hours; read-out: IC50, 50% inhibition of cell proliferation, PC3 (prostate). The method, then:
as §1

A further experiment deals with H1299 (lung). Nature of the experiment: In vitro cytotoxic activity MTT assay, H1299. The format is cell-based. As to conditions: Homo sapiens, NCI-H1299; H1299 cells, exposed for 96 hours; read-out: IC50, 50% inhibition of cell proliferation, H1299 (lung). How it is done: as §1

T1 sequence (P68400 whole entry): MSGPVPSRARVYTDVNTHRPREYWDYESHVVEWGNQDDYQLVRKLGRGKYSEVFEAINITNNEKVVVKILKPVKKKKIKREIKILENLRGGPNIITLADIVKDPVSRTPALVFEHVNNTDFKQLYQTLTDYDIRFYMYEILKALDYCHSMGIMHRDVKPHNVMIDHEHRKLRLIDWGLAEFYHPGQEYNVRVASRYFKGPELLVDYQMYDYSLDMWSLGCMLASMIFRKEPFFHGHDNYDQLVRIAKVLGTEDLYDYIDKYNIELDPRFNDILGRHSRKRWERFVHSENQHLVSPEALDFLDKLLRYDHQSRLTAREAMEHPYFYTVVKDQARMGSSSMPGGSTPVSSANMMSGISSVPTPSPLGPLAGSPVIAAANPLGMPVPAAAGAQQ
T1 sequence (P67870 whole entry partner): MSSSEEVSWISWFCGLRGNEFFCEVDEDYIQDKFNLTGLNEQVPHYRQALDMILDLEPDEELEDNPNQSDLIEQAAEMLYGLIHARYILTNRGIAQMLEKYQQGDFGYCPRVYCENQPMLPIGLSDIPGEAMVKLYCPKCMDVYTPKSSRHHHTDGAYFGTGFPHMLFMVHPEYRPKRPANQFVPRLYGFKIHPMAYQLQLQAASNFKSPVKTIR

Regarding `O=C(O)c1cc2nc(Nc3cccc(Cl)c3)c3ccncc3c2[nH]1` [Compound 1, 5-((3-chlorophenyl)amino)-1H-pyrrolo[3,2-c][2,6]naphthyridine-2-carboxylic acid], the IC50 is 21 nM on recombinant human CK2; 2200 nM in the experiment with HL60 (leukemia); 1100 nM in the experiment with HCT116 (colon); 900 nM in the experiment with MIAPaCa-2 (pancreas); 3.9 µM in the experiment on MDA-MB-231 (breast); 2600 nM in the experiment with A375 (melanoma). The figures for the IC50 in the experiment with MCF7 (breast), in the experiment on PC3 (prostate) and in the experiment on H1299 (lung) were 3.5 µM, 2400 nM and 1500 nM, respectively.
